Results on 14 substances are retold here after patent publication US20070275923A1, “CATIONIC PEPTIDES FOR siRNA [sequence] [sequence]” (NASTECH PHARMACEUTICAL COMPANY INC., priority 2006, published 2007).

Mal = not defined here

Data set [1] relates to Mouse tail fibroblast (MTF) cells. Put plainly: siRNA cell-uptake and MFI measured by FACS after peptide-mediated transfection of labeled siRNA. Type of data set: cell-based. The settings on record: for intracellular delivery of siRNA (verbal conclusion from cell-uptake and cell viability): conclusion drawn from Table 3; for % Cell-Uptake / MFI: 200 nM labeled siRNA; for % Cell-Uptake: % of total cells with intracellular labeled siRNA; for MFI: relative value, higher = more labeled siRNA entered the cell. As for the experimental part: SiRNA cell uptake was measured by FACS.
For the instant example, cell-uptake, mean fluorescent intensity (MFI) and cell viability was measured for each peptide. siRNA cell-uptake was measured by the presence of intracellular labeled siRNA. The cell-uptake assay determined the percentage of cells that contain the labeled siRNA. Mean Fluorescence Intensity (MFI) was used to determine the relative mean quantity of labeled siRNA that entered the cells.
A non-transfection, siRNA alone, control was also performed.
Within Table 3, “ND” means no data.

Data set [2] has the same test system. Description: in vitro. The settings on record: 200 nM siRNA, 100% represents 100% viability. How it is done: (§1) Mouse tail fibroblast (MTF) cells were derived from the tails of C57BL/6J mice. Tails were removed, immersed in 70% ethanol and then cut into small sections with a razor blade. The sections were washed three times with PBS and then incubated in a shaker at 37° C. with 0.5 mg/mL collagenase, 100 units/mL penicillin and 100 μg/mL streptomycin to disrupt tissue. Tail sections were then cultured in complete media (Dulbecco's Modified […] Medium with 20% FBS, 1 mM sodium pyruvate, nonessential amino acids and 100 units/mL penicillin and 100 μg/mL streptomycin) until cells were established. Cells were cultured at 37° C., 5% CO2 in complete media as outlined above.
(§2) Cells were be plated per well in a microtiter plate the day before transfection in complete media. The siRNA was be labeled, for example with a FAM, Alexa488, Alexa647 or Cy-5 conjugate. The cationic polymer peptide and siRNA were mixed in the microtiter plate complex with cells previously with OptiMEM. 7-AAD was added to each transfection to measure cell viability. Cells were transfected for three hours at 37° C., 5% CO2. The transfection mixture was removed and the cells were washed with TE buffer for about 10 minutes at 37° C., 5% CO2. Transfected cells were transferred to a V bottom plate and centrifuged. The TE buffer was removed and the transfected cells were resuspended in fluorescence activated cell sorting (FACS) buffer.
(§3) A non-transfection, siRNA alone, control was also performed. The peptide PN183 served herein as a positive cell-uptake control.
(§4) Cell-uptake is expressed as a percentage of the total cells with intracellular labeled siRNA. Cell Viability is also expressed as a percentage where 100% represents 100% viability. The MFI value is a relative value with a higher MFI value indicating a greater amount of labeled siRNA entered the cell. Within Table 3, “ND” means no data.

The nature of another data set: in vitro. The settings on record: C57BL/6J, mouse, mouse tail fibroblast (MTF) cells. How it is done: as §1, §2, §3, §4

On to “PEG (10 KDa)-Mal-(Lys-His)15-amide ({PEG 10 kDa-Mal}-KHKHKHKHKHKHKHKHKHKHKHKHKHKHKH-NH2; reading uncertain) [PN937]”, for which the “intracellular delivery of siRNA (verbal conclusion from cell-uptake and cell viability)” value (shortened to “intracellular delivery of siRNA”) in data set [1] is “effective intracellular delivery of siRNA without negatively impacting cell viability”. Moreover, the “% Cell-Uptake” value in data set [1] (peptide concentration 1 μM) is 54.7%; in data set [1] (peptide concentration 10 μM) it was 92.6%. In addition, the MFI was 3.18 in data set [1] (peptide concentration 1 μM) and 6.41 in data set [1] (peptide concentration 10 μM). Moreover, the results for the “% Cell Viability” value in data set [2] (peptide concentration 1 μM) and in data set [2] (peptide concentration 10 μM) were 99% and 99.4%, respectively.
“PEG (10 KDa)-Mal-Trp-(Lys)30-amide (WKKKKKKKKKKKKKKKKKKKKKKKKKKKKKK; PEG 10 kDa maleimide; C-terminal amide) [PN986]”: the “% Cell-Uptake” value turned out to be 0.6% in data set [1] (peptide concentration 1 μM), 0.8% in data set [1] (peptide concentration 10 μM) and 2.5% in data set [1] (peptide concentration 100 μM). Moreover, the “% Cell Viability” value is listed as 97.4% in data set [2] (peptide concentration 1 μM), 97.2% in data set [2] (peptide concentration 10 μM) and 93.6% in data set [2] (peptide concentration 100 μM).
Turning to “H-KHKHKHKHKHKHKHKHKHKHKHKHKHKHKH-NH2 [PN935, NH2-(Lys-His)15-amide]”, the “intracellular delivery of siRNA” value in data set [1] is reported as “effective intracellular delivery of siRNA without negatively impacting cell viability”. In addition, in data set [1] (peptide concentration 1 μM), the “% Cell-Uptake” value stood at 20.3% and the MFI is 1.94. Also, in data set [1] (peptide concentration 10 μM), the “% Cell-Uptake” value was determined as 36.1% and the MFI worked out at 2.2. In data set [1] (peptide concentration 100 μM), the “% Cell-Uptake” value was determined as 24.6% and the MFI is 2.16. For the same substance, in the data set “in vitro”, the viability at 3 h, 1 µM was 98.1%; the viability at 3 h, 10 µM came out at 97.3%; the viability at 3 h, 100 µM worked out at 96.6%.
Turning to “PEG (10 KDa)-Mal-(Lys)10-amide ({PEG 10 kDa-Mal}-KKKKKKKKKK-NH2; reading uncertain; also: printed as PEG (10 KDa)-Mal-(Lys)10-amide) [PN934]”, the “% Cell-Uptake” value in data set [1] (peptide concentration 1 μM) is 0.2%; in data set [1] (peptide concentration 10 μM) it was 1.1%; in data set [1] (peptide concentration 100 μM), 0.3%. Also, the “% Cell Viability” value is 98.3% in data set [2] (peptide concentration 1 μM), 96.2% in data set [2] (peptide concentration 10 μM) and 97.4% in data set [2] (peptide concentration 100 μM).
Turning to “PEG (2 KDa)-Mal-(Lys)20-amide ({PEG 2 kDa-Mal}-KKKKKKKKKKKKKKKKKKKK-NH2; reading uncertain) [PN926]”, the “% Cell-Uptake” value in data set [1] (peptide concentration 1 μM) is listed as 0.9%; in data set [1] (peptide concentration 10 μM), 1.4%; in data set [1] (peptide concentration 100 μM) it was 1.2%. For the same substance, the results for the “% Cell Viability” value in data set [2] (peptide concentration 1 μM), in data set [2] (peptide concentration 10 μM) and in data set [2] (peptide concentration 100 μM) were 97.9%, 98.3% and 98.3%, respectively.
With “PEG (10 KDa)-Mal-(Lys)20-amide ({PEG 10 kDa-Mal}-KKKKKKKKKKKKKKKKKKKK-NH2; reading uncertain) [PN928]”, the results for the “% Cell-Uptake” value in data set [1] (peptide concentration 1 μM), in data set [1] (peptide concentration 10 μM) and in data set [1] (peptide concentration 100 μM) were 3.9%, 2.3% and 3.2%, respectively. Besides, the “% Cell Viability” value came to 97.3% in data set [2] (peptide concentration 1 μM), 98% in data set [2] (peptide concentration 10 μM) and 98.2% in data set [2] (peptide concentration 100 μM).
Turning to “PEG (2 KDa)-Mal-(Lys)15-amide ({PEG 2 kDa-Mal}-KKKKKKKKKKKKKKK-NH2; reading uncertain; also: printed as PEG (2 KDa)-Mal-(Lys)15-amide) [PN930]”, the “% Cell-Uptake” value in data set [1] (peptide concentration 1 μM) was 0.2%; in data set [1] (peptide concentration 10 μM) it was 1.5%; in data set [1] (peptide concentration 100 μM) it was 0.8%. Moreover, the “% Cell Viability” value in data set [2] (peptide concentration 1 μM) amounted to 97.9%; in data set [2] (peptide concentration 10 μM), 97.2%; in data set [2] (peptide concentration 100 μM), 97.8%.
Turning to PEG (10 KDa)-Mal-(Lys)25-amide [PN927], the “% Cell-Uptake” value in data set [1] (peptide concentration 1 μM) is 1.6%; in data set [1] (peptide concentration 10 μM), 0.8%; in data set [1] (peptide concentration 100 μM) it was 0.7%. The “% Cell Viability” value in data set [2] (peptide concentration 1 μM) was determined as 95.6%; in data set [2] (peptide concentration 10 μM), 97%; in data set [2] (peptide concentration 100 μM) it was 97.3%.
In the case of “PEG (10 KDa)-Mal-(Lys-His)10-amide ({PEG 10 kDa-Mal}-KHKHKHKHKHKHKHKHKHKH-NH2; reading uncertain) [PN940]”, in data set [1], the “intracellular delivery of siRNA” value is recorded as “effective intracellular delivery of siRNA without negatively impacting cell viability”. Also, the “% Cell-Uptake” value turned out to be 69.9% in data set [1] (peptide concentration 1 μM) and 70.6% in data set [1] (peptide concentration 10 μM). Further, the MFI in data set [1] (peptide concentration 1 μM) was 4.81; in data set [1] (peptide concentration 10 μM), 2.54. Further, the “% Cell Viability” value in data set [2] (peptide concentration 1 μM) is listed as 99.1%; in data set [2] (peptide concentration 10 μM), 98.4%.
In the case of “PEG (2 KDa)-Mal-(Lys-His)15-amide ({PEG 2 kDa-Mal}-KHKHKHKHKHKHKHKHKHKHKHKHKHKHKH-NH2; reading uncertain) [PN936]”, in data set [1], the “intracellular delivery of siRNA” value was “effective intracellular delivery of siRNA without negatively impacting cell viability”. The “% Cell-Uptake” value in data set [1] (peptide concentration 1 μM) is given as 37.7%; in data set [1] (peptide concentration 10 μM), 55.3%; in data set [1] (peptide concentration 100 μM), 25.9%. The results for the MFI in data set [1] (peptide concentration 1 μM) and in data set [1] (peptide concentration 10 μM) were 2.66 and 5.86, respectively. In addition, the entries for the “% Cell Viability” value in data set [2] (peptide concentration 1 μM), in data set [2] (peptide concentration 10 μM) and in data set [2] (peptide concentration 100 μM) were 97.5%, 98.1% and 28.7%, respectively.
For “PEG (2 KDa)-Mal-(Lys)10-amide ({PEG 2 kDa-Mal}-KKKKKKKKKK-NH2; reading uncertain; also: printed as PEG (2 KDa)-Mal-(Lys)10-amide) [PN933]”, the “% Cell-Uptake” value worked out at 0.3% in data set [1] (peptide concentration 1 μM), 0.5% in data set [1] (peptide concentration 10 μM) and 0.2% in data set [1] (peptide concentration 100 μM). For the same substance, the results for the “% Cell Viability” value in data set [2] (peptide concentration 1 μM), in data set [2] (peptide concentration 10 μM) and in data set [2] (peptide concentration 100 μM) were 97.7%, 98% and 98%, respectively.
Consider “PEG (2 KDa)-Mal-(Lys-His)10-amide ({PEG 2 kDa-Mal}-KHKHKHKHKHKHKHKHKHKH-NH2; reading uncertain) [PN939]”, for which the “intracellular delivery of siRNA” value in data set [1] is “effective intracellular delivery of siRNA without negatively impacting cell viability”. Also, the “% Cell-Uptake” value in data set [1] (peptide concentration 1 μM) was determined as 66%; in data set [1] (peptide concentration 10 μM) it was 97%; in data set [1] (peptide concentration 100 μM), 97.3%. Also, the MFI was found to be 3.3 in data set [1] (peptide concentration 1 μM), 35.1 in data set [1] (peptide concentration 10 μM) and 3.33 in data set [1] (peptide concentration 100 μM). Also, the “% Cell Viability” value is recorded as 98.6% in data set [2] (peptide concentration 1 μM), 99.7% in data set [2] (peptide concentration 10 μM) and 99.1% in data set [2] (peptide concentration 100 μM).
For the substance PEG (2 KDa)-Mal-(Lys)25-amide [PN925], the entries for the “% Cell-Uptake” value in data set [1] (peptide concentration 1 μM), in data set [1] (peptide concentration 10 μM) and in data set [1] (peptide concentration 100 μM) were 5.2%, 2.9% and 2.2%, respectively. In addition, the “% Cell Viability” value in data set [2] (peptide concentration 1 μM) is on record as 96.6%; in data set [2] (peptide concentration 10 μM), 97.8%; in data set [2] (peptide concentration 100 μM) it was 95.8%.
Regarding “PEG (10 KDa)-Mal-(Lys)15-amide ({PEG 10 kDa-Mal}-KKKKKKKKKKKKKKK-NH2; reading uncertain; also: printed as PEG (10 KDa)-Mal-(Lys)15-amide) [PN931]”, the “% Cell-Uptake” value in data set [1] (peptide concentration 1 μM) amounted to 0.6%; in data set [1] (peptide concentration 10 μM), 0.7%; in data set [1] (peptide concentration 100 μM) it was 0.5%. The “% Cell Viability” value in data set [2] (peptide concentration 1 μM) is 97%; in data set [2] (peptide concentration 10 μM) it was 97.7%; in data set [2] (peptide concentration 100 μM) it was 98.4%.
